These results are taken from patent US8846710B2, “Method of preferentially inducing the biosynthesis of interferon” (3M Innovative Properties Company, priority 2005, dated 2014).

For test [1], the system named is interferon (α) (IFN-α). Briefly: Cytokine induction in human cells: IFN-α secreted by PBMC into culture media (ELISA). To be noted: for minimal effective concentration / Maximal Response (pg/mL) IFN: Table 10; for minimal effective concentration / Maximal Response IFN / Minimum Effective Concentration IFN: human PBMC; for minimal effective concentration: lowest tested concentration inducing IFN-α over usually 20 pg/mL, median where more than one experiment, read-out: Minimum Effective Concentration (μM) IFN; for Maximal Response (pg/mL) IFN: maximal response in dose response curve, * = below experimental background level, median; for Maximal Response IFN / Minimum Effective Concentration IFN: Table 11, median where tested in more than one experiment. It is filed as cell-based. An excerpt:
(§1) Cytokine Induction in Human Cells
(§2) An in vitro human blood cell system is used to assess cytokine induction. Activity is based on the measurement of interferon (α) and tumor necrosis factor (α) (IFN-α and TNF-α, respectively) secreted into culture media as described by Testerman et. al. in “Cytokine Induction by the Immunomodulators Imiquimod and S-27609”, Journal of Leukocyte Biology, 58, 365-372 (September, 1995).
(§3) Blood Cell Preparation for Culture
(§4) Whole blood from healthy human donors is collected by venipuncture into vacutainer tubes or syringes containing EDTA. Peripheral blood mononuclear cells (PBMC) are separated from whole blood by density gradient centrifugation using HISTOPAQUE-1077 (Sigma, St. Louis, Mo.) or Ficoll-Paque Plus (Amersham Biosciences Piscataway, N.J.). Blood is diluted 1:1 with Dulbecco's Phosphate Buffered Saline (DPBS) or Hank's Balanced Salts Solution (HBSS). Alternately, whole blood is placed in Accuspin (Sigma) or LeucoSep (Oreiner Bio-One, Inc., Longwood, Fla.) centrifuge frit tubes containing density gradient medium. The PBMC layer is collected and washed twice with DPBS or HBSS and re-suspended at 4×10^6 cells/mL in RPMI complete. The PBMC suspension is added to 96 well flat bottom sterile tissue culture plates containing an equal volume of RPMI complete media containing test compound.
(§5) The compounds are solubilized in dimethyl sulfoxide (DMSO). The DMSO concentration should not exceed a final concentration of 1% for addition to the culture wells. The compounds are generally tested at concentrations ranging from 30-0.014 μM. Controls include cell samples with media only, cell samples with DMSO only (no compound), and cell samples with reference compound.
(§6) The solution of test compound is added at 60 μM to the first well containing RPMI complete and serial 3 fold dilutions are made in the wells. The PBMC suspension is then added to the wells in an equal volume, bringing the test compound concentrations to the desired range (usually 30-0.014 μM). The final concentration of PBMC suspension is 2×10^6 cells/mL. The plates are covered with sterile plastic lids, mixed gently and then incubated for 18 to 24 hours at 37° C. in a 5% carbon dioxide atmosphere.
(§7) Following incubation the plates are centrifuged for 10 minutes at 1000 rpm (approximately 200×g) at 4° C. The cell-free culture supernatant is removed and transferred to sterile polypropylene tubes. Samples are maintained at −30 to −70° C. until analysis. The samples are analyzed for IFN-α by ELISA and for TNF-α by IGEN/BioVeris Assay.
(§8) Interferon (α) and Tumor Necrosis Factor (α) Analysis
IFN-α concentration is determined with a human multi-subtype calorimetric sandwich ELISA (Catalog Number 41105) from PBL Biomedical Laboratories, Piscataway, N.J. Results are expressed in pg/mL.
(§9) In total, the data output of the assay consists of concentration values of TNF-α and IFN-α (y-axis) as a function of compound concentration (x-axis).
Analysis of the data has two steps. First, the greater of the mean DMSO (DMSO control wells) or the experimental background (usually 20 pg/mL for IFN-α and 40 pg/mL for TNF-α) is subtracted from each reading. If any negative values result from background subtraction, the reading is reported as “*”, and is noted as not reliably detectable. In subsequent calculations and statistics, “*”, is treated as a zero. Second, all background subtracted values are multiplied by a single adjustment ratio to decrease experiment to experiment variability. The adjustment ratio is the area of the reference compound in the new experiment divided by the expected area of the reference compound based on the past 61 experiments (unadjusted readings). […] The reference compound used is 2-[4-amino-2-ethoxymethyl-6,7,8,9-tetrahydro-α,α-dimethyl-1H-imidazo[4,5-c]quinolin-1-yl]ethanol hydrate (U.S. Pat. No. 5,352,784; Example 91) and the expected area is the sum of the median dose values from the past 61 experiments. […]
On the technique in general: ELISA stands for enzyme-linked immunosorbent assay.

The test system of test [2] is tumor necrosis factor (α) (TNF-α). Briefly: Cytokine induction in human cells: TNF-α secreted by PBMC into culture media (ORIGEN M-Series immunoassay). The format is cell-based. Conditions: for minimal effective concentration / Maximal Response (pg/mL) TNF: Table 10; for minimal effective concentration / Minimum Effective Concentration TNF / Maximal Response TNF: human PBMC; for minimal effective concentration: lowest tested concentration inducing TNF-α over usually 40 pg/mL, median where more than one experiment, read-out: Minimum Effective Concentration (μM) TNF; for Maximal Response (pg/mL) TNF: maximal response in dose response curve, * = below experimental background level; for Maximal Response (pg/mL) TNF / Maximal Response TNF: median; for Minimum Effective Concentration TNF / Maximal Response TNF: Table 11; for Minimum Effective Concentration TNF: median where tested in more than one experiment; for Maximal Response TNF: * = TNF below experimental background of 40 pg/mL.
From the text: as §1, §2, §3, §4, §5, §6, §7, §8
The TNF-α concentration is determined by ORIGEN M-Series Immunoassay and read on an IGEN M-8 analyzer from BioVeris Corporation, formerly known as IGEN International, Gaithersburg, Md. The immunoassay uses a human TNF-α capture and detection antibody pair (Catalog Numbers AHC3419 and AHC3712) from Biosource International, Camarillo, Calif. Results are expressed in pg/mL.
as §9
Analysis of the data has two steps. First, the greater of the mean DMSO (DMSO control wells) or the experimental background (usually 20 pg/mL for IFN-α and 40 pg/mL for TNF-α) is subtracted from each reading. If any negative values result from background subtraction, the reading is reported as “*”, and is noted as not reliably detectable. In subsequent calculations and statistics, “*”, is treated as a zero. Second, all background subtracted values are multiplied by a single adjustment ratio to decrease experiment to experiment variability. The adjustment ratio is the area of the reference compound in the new experiment divided by the expected area of the reference compound based on the past 61 experiments (unadjusted readings). […]

As to `CCCC(=O)NCCCCn1c(COCC)nc2c(N)nc3cc(-c4cccnc4)ccc3c21` [Analog 31], in test [1], the minimal effective concentration is reported as 0.12 µM and the “Maximal Response (pg/mL) IFN” value is recorded as 965 pg/mL. For the same compound, in test [2], the minimal effective concentration amounted to 1.11 µM and the “Maximal Response (pg/mL) TNF” value is 991 pg/mL.
Taken in the same sequence, the figures for `CCCC(=O)NCCCCn1c(CCC)nc2c(N)nc3cc(-c4cccnc4)ccc3c21` [Analog 32] were 0.12 µM, 862 pg/mL, 0.37 µM and 1647 pg/mL.
Taken in the same sequence, the figures for `CCOCc1nc2c(N)nc3cc(-c4cccnc4)ccc3c2n1CCCCNC(=O)NC1CCCC1` [Analog 33] were 0.014 µM, 925 pg/mL, 1.11 µM and 1618 pg/mL.
Taken in the same sequence, the figures for `CCCc1nc2c(N)nc3cc(-c4cccnc4)ccc3c2n1CCCCNC(=O)NC1CCCC1` [Analog 34] were 0.014 µM, 649 pg/mL, 0.37 µM and 9019 pg/mL.
`CCOCc1nc2c(N)nc3cc(-c4cccnc4)ccc3c2n1CCCCNC(=O)C1CCCC1` [Analog 35]: in test [1], the minimal effective concentration amounted to 0.04 µM and the “Maximal Response (pg/mL) IFN” value came to 969 pg/mL. Further, in test [2], the minimal effective concentration amounted to 0.37 µM and the “Maximal Response (pg/mL) TNF” value amounted to 1366 pg/mL.
Taken in the same sequence, the figures for `CCCc1nc2c(N)nc3cc(-c4cccnc4)ccc3c2n1CCCCNC(=O)C1CCCC1` [Analog 36] were 0.12 µM, 521 pg/mL, 0.37 µM and 2222 pg/mL.
The corresponding values for `CCOCc1nc2c(N)nc3cc(-c4cccnc4)ccc3c2n1CCCCNC(=O)C(C)C` [Analog 37] are 0.12 µM, 1194 pg/mL, 1.11 µM and 728 pg/mL.
The corresponding values for `CCCc1nc2c(N)nc3cc(-c4cccnc4)ccc3c2n1CCCCNC(=O)C(C)C` [Analog 38] are 0.12 µM, 1610 pg/mL, 0.37 µM and 960 pg/mL.
Take `COCCc1nc2c(N)nc3cc(-c4cccnc4)ccc3c2n1CCCN1CCCC1=O` [Analog 39]: in test [1], the minimal effective concentration is 0.12 µM and the “Maximal Response (pg/mL) IFN” value was 753 pg/mL. Moreover, in test [2], the minimal effective concentration came to 1.11 µM and the “Maximal Response (pg/mL) TNF” value is reported as 380 pg/mL.
Taken in the same sequence, the figures for `COCCc1nc2c(N)nc3cc(-c4ccncc4)ccc3c2n1CCCN1CCCC1=O` [Analog 40] were 0.37 µM, 1179 pg/mL, 3.33 µM and 943 pg/mL.
The corresponding values for `CCOCc1nc2c(N)nc3cc(-c4cccc(C)c4)ccc3c2n1CC(C)(C)O` [Analog 41] are 0.014 µM, 541 pg/mL, 0.12 µM and 10184 pg/mL.
Taken in the same sequence, the figures for `CCOCc1nc2c(N)nc3cc(-c4ccc(C)cc4)ccc3c2n1CC(C)(C)O` [Analog 42] were 0.12 µM, 650 pg/mL, 0.12 µM and 4456 pg/mL.
In the case of `CCOCc1nc2c(N)nc3cc(-c4cccc(O)c4)ccc3c2n1CC(C)(C)O` [Analog 43], in test [1], the minimal effective concentration is reported as 0.04 µM and the “Maximal Response (pg/mL) IFN” value was 740 pg/mL. Also, in test [2], the minimal effective concentration is recorded as 0.04 µM and the “Maximal Response (pg/mL) TNF” value is given as 3955 pg/mL.
Regarding `CCOCc1nc2c(N)nc3cc(-c4cncc(CO)c4)ccc3c2n1CC1CCN(C(=O)C(C)C)CC1` [Analog 44], in test [1], the minimal effective concentration was 0.04 µM and the “Maximal Response (pg/mL) IFN” value came out at 1382 pg/mL. Further, in test [2], the minimal effective concentration came to 1.11 µM and the “Maximal Response (pg/mL) TNF” value was 3128 pg/mL.
Take `CCOCc1nc2c(N)nc3cc(-c4cncc(CO)c4)ccc3c2n1CC1CCCCC1` [Analog 45]: in test [1], the minimal effective concentration is reported as 0.014 µM and the “Maximal Response (pg/mL) IFN” value was found to be 1062 pg/mL. Moreover, in test [2], the minimal effective concentration stood at 1.11 µM and the “Maximal Response (pg/mL) TNF” value stood at 2865 pg/mL.
Taken in the same sequence, the figures for `CCOCc1nc2c(N)nc3cc(-c4cccc(C(=O)N5CCOCC5)c4)ccc3c2n1CC1CCCCC1` [Analog 46] were 0.014 µM, 815 pg/mL, 0.37 µM and 1054 pg/mL.
`COCc1nc2c(N)nc3ccccc3c2n1CC(C)(C)NS(C)(=O)=O` [Analog 47]: in test [1], the “Maximal Response IFN” value stood at 1638 pg/mL and the “Minimum Effective Concentration IFN” value worked out at 0.37 µM. Also, in test [2], the “Minimum Effective Concentration TNF” value amounted to 3.33 µM and the “Maximal Response TNF” value came out at 7151 pg/mL.
`Cc1nc2c(N)nc3ccccc3c2n1CCCCNS(C)(=O)=O` [Analog 48]: in test [1], the “Maximal Response IFN” value came to 7293 pg/mL and the “Minimum Effective Concentration IFN” value was determined as 0.12 µM. Further, in test [2], the “Minimum Effective Concentration TNF” value worked out at 10 µM and the “Maximal Response TNF” value is 526 pg/mL.
The corresponding values for `CCc1nc2c(N)nc3ccccc3c2n1CCCCNS(C)(=O)=O` [Analog 49] are 2712 pg/mL, 0.04 µM, 3.33 µM and 679 pg/mL.
The corresponding values for `CCCc1nc2c(N)nc3ccccc3c2n1CCCCNS(C)(=O)=O` [Analog 50] are 2184 pg/mL, 0.12 µM, 1.11 µM and 850 pg/mL.
